Test results published in patent US20090326196A1 (priority 2006, published 2009).
Square brackets hold non-standard residues; d marks the D form. Peptide text beside a SMILES is read from it. Leu(5,5,5,5',5',5'-F6) = N[C@@H](CC(C(F)(F)F)C(F)(F)F)C(=O)O

Key:
[1] = test system: trypsin (from bovine pancreas, EC 3.4.21.4); assay: 1 μg trypsin in 200 μL of PBS buffer (pH 7.4, 10 mM PO4^3−, 150 mM NaCl); settings: 37° C., up to 3 h
[2] = target: T1, trypsin (from bovine pancreas, EC 3.4.21.4) (Bos taurus, UniProt P00760); assay: in vitro; assay type: in vitro ADME
T1 construct: trypsin (from bovine pancreas, EC 3.4.21.4); from tissue; host or cells: bovine pancreas
T1 sequence (P00760 24-246): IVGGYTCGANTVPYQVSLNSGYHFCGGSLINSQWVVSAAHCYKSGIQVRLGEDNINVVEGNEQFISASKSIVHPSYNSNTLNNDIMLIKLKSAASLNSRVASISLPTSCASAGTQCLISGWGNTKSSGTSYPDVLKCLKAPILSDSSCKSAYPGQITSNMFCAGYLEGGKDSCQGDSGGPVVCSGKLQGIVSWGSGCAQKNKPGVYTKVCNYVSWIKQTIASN
Experimental: (§1) The proteolytic stability of peptides towards trypsin (from bovine pancreas, EC 3.4.21.4) was determined by an analytical RP-HPLC assay. […] The enzyme concentration (in 1 mM HCl) was determined by absorbance at 280 nm. […] The amount of enzyme was optimized so that kinetics of proteolytic reactions could be assayed by RP-HPLC (detection at 230 nm). The peptides were incubated with trypsin at 37° C. over a period of 3 h. Aliquots (10 μL) were taken at different reaction times, diluted with 0.2% TFA (440 μL) and stored at −80° C. […] The remaining full-length peptide concentration was normalized with respect to the initial concentration.
(§2) where A is the normalized concentration of peptides; k is the pseudo first order rate constant; t is the reaction time in mins; and [A]0 is the initial concentration of peptides. Each fragment cleaved from the full-length peptides was identified by ESI-MS so that cleavage patterns could be established and compared.

[3] = test system: DPP IV (from porcine kidney, EC 3.4.14.5); assay: DPP IV 20 unit/L in 50 mM Tris-HCl, 1 mM EDTA, pH 7.6; settings: 37° C., up to 48 h
[4] = test system: human red blood cells (hRBC); assay type: cell-based
Experimental: The selectivity with which the peptides are able to lyse bacterial cells compared to mammalian cells was interrogated by a hemolysis assay against human red blood cells (hRBC). […] Our results are consistent with this trend.
Fresh human red blood cells (hRBCs) were centrifuged at 3,500 rpm and washed with PBS buffer until the supernatant was clear. The hRBCs were then resuspended and diluted to a final concentration of 1% (v/v) in PBS and stored at 4° C. […] An aliquot (50 μL) of supernatant was transferred to a new 96-well plate containing 50 μL H2O in each well. The absorbance at 415 nm was measured using a plate reader. Wells containing melittin at 100-400 μg/mL served as positive controls, and wells containing only buffer and hRBCs served as negative controls. The percentage hemolysis was calculated using the equation:
where complete hemolysis is defined as the average absorbance of all wells containing 100-400 μg/[…] melittin.

[5] = test system: trypsin (from bovine pancreas, EC 3.4.21.4); assay: 0.5 μg trypsin in 200 μL of PBS buffer (pH 7.4, 10 mM PO4^3−, 150 mM NaCl); settings: 37° C., up to 3 h
[6] = test system: T2, trypsin; assay: in vitro; assay type: in vitro ADME, bovine; settings: bovine, isolated enzyme trypsin, pH 7.4
T2 construct: trypsin (from bovine pancreas, EC 3.4.21.4); from tissue; host or cells: bovine pancreas
Experimental: as §1, §2

**Q.** How did the fragment found [1] turn out when GIGKFLHAAKKFAKAFVAEIMNS was run?
**A.** The fragment found was “M2 (1-14), first_seen”.

**Q.** “magainin 2 [Peptide M2, reference compound]” was tested. Which “time to complete hydrolysis” value [2] did it give?
**A.** The value was 33 min.

**Q.** How did the “fold more resistant to hydrolysis by trypsin” value [2] turn out when CC(C)C[C@H](NC(=O)CNC(=O)[C@H](C)NC(=O)[C@@H](N)CCCNC(=N)N)C(=O)N[C@@H](CCC(N)=O)C(=O)N[C@@H](Cc1ccccc1)C(=O)N1CCC[C@H]1C(=O)N[C@H](C(=O)NCC(=O)N[C@@H](CCCNC(=N)N)C(=O)N[C@H](C(=O)N[C@@H](Cc1c[nH]cn1)C(=O)N[C@@H](CCCNC(=N)N)C(=O)N[C@@H](CC(C(F)(F)F)C(F)(F)F)C(=O)N[C@@H](CC(C(F)(F)F)C(F)(F)F)C(=O)N[C@@H](CCCNC(=N)N)C(=O)N[C@@H](CCCCN)C(=O)O)C(C)C)C(C)C [BII5F2] (H-RAGLQFPVGRVHR[Leu(5,5,5,5',5',5'-F6)][Leu(5,5,5,5',5',5'-F6)]RK-OH) was run?
**A.** Its value is ~3 fold.

**Q.** Which not cleaved [3] does the source give for HXXGTFTSDVSSYLEGQAAKEFIAWLVKGR here?
**A.** Its not cleaved is “no fragments were detected after 24 h incubation”.

**Q.** With GIGKFXHAAKKFAKAFVAEXMNS as the molecule, how does the fragment found [1] read?
**A.** Its fragment found is “M2F2 (1-14), first_seen”.

**Q.** With CC[C@H](C)[C@H](NC(=O)CN)C(=O)NCC(=O)N[C@@H](CCCCN)C(=O)N[C@@H](Cc1ccccc1)C(=O)N[C@@H](CC(C(F)(F)F)C(F)(F)F)C(=O)N[C@@H](Cc1cnc[nH]1)C(=O)N[C@@H](C)C(=O)N[C@@H](C)C(=O)N[C@@H](CCCCN)C(=O)N[C@@H](CCCCN)C(=O)N[C@@H](Cc1ccccc1)C(=O)N[C@@H](C)C(=O)N[C@@H](CCCCN)C(=O)N[C@@H](C)C(=O)N[C@@H](Cc1ccccc1)C(=O)N[C@H](C(=O)N[C@@H](C)C(=O)N[C@@H](CCC(=O)O)C(=O)N[C@@H](CC(C(F)(F)F)C(F)(F)F)C(=O)N[C@@H](CCSC)C(=O)N[C@@H](CC(N)=O)C(=O)N[C@@H](CO)C(N)=O)C(C)C [Peptide M2F2] (H-GIGKF[Leu(5,5,5,5',5',5'-F6)]HAAKKFAKAFVAE[Leu(5,5,5,5',5',5'-F6)]MNS-NH2) as the molecule, how does the “hemolytic activity relative to parent peptide, in words” value [4] read?
**A.** Its value is “slightly more hemolytic”.

**Q.** And the “more stable to proteolysis by a factor, relative to M2” value [2]?
**A.** The value was ~1.2.

**Q.** How did the cleaved bond [5] turn out when TRSSRAGLQFPVGRVHRXXRK was run?
**A.** The cleaved bond was “initial P1 site of cleavage BII1F2 (R14), first_seen”.

**Q.** And the fragment found [5]?
**A.** The fragment found was “BII1F2 (6-21), first_seen”.

**Q.** With HXEGTFTSDVSSYLEGQAAKEFIAWLVKGR as the molecule, how does the not cleaved [3] read?
**A.** The not cleaved was “no fragments were detected after 24 h incubation”.

**Q.** For “buforin II[1-21] [BII1, reference compound]”, which “initial P1 site of cleavage” value [2] is on record?
**A.** Its value is “R17”.

**Q.** Which results are given for CC[C@H](C)[C@H](NC(=O)CN)C(=O)NCC(=O)N[C@@H](CCCCN)C(=O)N[C@@H](Cc1ccccc1)C(=O)N[C@@H](CC(C(F)(F)F)C(F)(F)F)C(=O)N[C@@H](Cc1c[nH]cn1)C(=O)N[C@@H](C)C(=O)N[C@@H](CC(C(F)(F)F)C(F)(F)F)C(=O)N[C@@H](CCCCN)C(=O)N[C@@H](CCCCN)C(=O)N[C@@H](Cc1ccccc1)C(=O)N[C@@H](CC(C(F)(F)F)C(F)(F)F)C(=O)N[C@@H](CCCCN)C(=O)N[C@@H](C)C(=O)N[C@@H](Cc1ccccc1)C(=O)N[C@@H](CC(C(F)(F)F)C(F)(F)F)C(=O)N[C@@H](C)C(=O)N[C@@H](CCC(=O)O)C(=O)N[C@@H](CC(C(F)(F)F)C(F)(F)F)C(=O)N[C@@H](CCSC)C(=O)N[C@@H](CC(N)=O)C(=O)N[C@@H](CO)C(N)=O [Peptide M2F5] (H-GIGKF[Leu(5,5,5,5',5',5'-F6)]HA[Leu(5,5,5,5',5',5'-F6)]KKF[Leu(5,5,5,5',5',5'-F6)]KAF[Leu(5,5,5,5',5',5'-F6)]AE[Leu(5,5,5,5',5',5'-F6)]MNS-NH2)?
**A.** hemolytic activity relative to parent peptide, in words [4]: significantly more hemolytic; remaining at 3 h, 0.25 mM [6]: > 78%

**Q.** With HAXGTFTSDVSSYLEGQAAKEFIAWLVKGR as the molecule, how does the fragment found [3] read?
**A.** The fragment found was “corresponding peptide fragment GLP-1 (9-36) amide, major”.
